Assay results reported in ChEMBL document CHEMBL5120892, “Identification and Characterization of Natural and Semisynthetic Quinones as Aurora Kinase Inhibitors” (J Nat Prod, 2022).
Active and inactive are the calls of the source. The calls are words filed in the database; no cut-off is given here.

Tests used:
HCT-116 [1] = assay: Antiproliferative activity against human HCT-116 cells measured after 72 hrs by SRB assay; type: functional
MV4-11 = assay: Antiproliferative activity against human MV4-11 cells measured after 72 hrs by SRB assay; type: functional
HCC1954 = assay: Antiproliferative activity against human HCC1954 cells measured after 72 hrs by SRB assay; type: functional
K562 = assay: Antiproliferative activity against human K562 cells measured after 72 hrs by SRB assay; type: functional
MOLM-13 = assay: Antiproliferative activity against human MOLM-13 cells measured after 72 hrs by SRB assay; type: functional
BT-549 = assay: Antiproliferative activity against human BT-549 cells measured after 72 hrs by SRB assay; type: functional
MCF7 = assay: Antiproliferative activity against human MCF7 cells measured after 72 hrs by SRB assay; type: functional
CAL-51 = assay: Antiproliferative activity against human CAL-51 cells measured after 72 hrs by SRB assay; type: functional
[2] = molecular target: T1, Aurora kinase A (Homo sapiens) (UniProt O14965); assay: Binding affinity to Aurora A (unknown origin) expressed in Escherichia coli Rosetta 2(DE3) at 1 mM by STD NMR analysis
T1 sequence (whole entry): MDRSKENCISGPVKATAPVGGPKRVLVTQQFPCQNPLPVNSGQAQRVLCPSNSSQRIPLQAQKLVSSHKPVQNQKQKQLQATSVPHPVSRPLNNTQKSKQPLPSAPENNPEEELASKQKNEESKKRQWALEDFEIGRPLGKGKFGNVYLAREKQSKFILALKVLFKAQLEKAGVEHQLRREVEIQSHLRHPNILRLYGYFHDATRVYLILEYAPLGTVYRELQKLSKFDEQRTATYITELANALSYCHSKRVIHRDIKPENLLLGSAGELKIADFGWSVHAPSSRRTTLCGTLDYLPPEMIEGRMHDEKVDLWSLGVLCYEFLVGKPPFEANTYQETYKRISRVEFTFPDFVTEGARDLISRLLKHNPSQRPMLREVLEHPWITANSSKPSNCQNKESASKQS

A549 [3] = assay: Induction of abnormal mitosis in human A549 cells assessed as formation of aberrant spindle assembly at 3 to 6 uM measured after 24 hrs by DAPI staining based immunofluorescence assay; type: functional, cell-based; conditions: dose 3-6 µM
A549 [4] = assay: Induction of abnormal mitosis in human A549 cells assessed as formation of single spindle pole at 3 to 6 uM measured after 24 hrs by CDK5Rap2 staining based immunofluorescence assay; type: functional, cell-based; conditions: dose 3-6 µM
HCT-116 [5] = assay: Induction of apoptosis in human HCT-116 cells assessed as early apoptotic cells at 2.5 uM measured after 24 hrs by Annexin V-FITC/propidium iodide staining based flow cytometry (reference value: 2.92%); type: functional
HCT-116 [6] = assay: Induction of apoptosis in human HCT-116 cells assessed as increase in cleaved PARP expression at 1.25 to 5 uM measured after 24 hrs by Western blot analysis; type: functional, cell-based; conditions: dose 1.25-5 µM
Aurora kinase A [7] = molecular target: T2, Aurora kinase A (Homo sapiens, UniProt O14965); assay: Inhibition of Aurora A (122 to 403 residues) (unknown origin) expressed in Escherichia coli Rosetta 2(DE3) assessed as reduction in TACC3 phosphorylation at Ser 558 residue using TACC3 (519 to 838 residues) as substrate measured after 30 mins by Western blot analysis
T2 sequence (O14965 whole entry): T1 sequence (whole entry)

Aurora kinase B [8] = molecular target: T3, Aurora kinase B (Homo sapiens, UniProt Q96GD4); assay: Inhibition of Aurora B (unknown origin)
HCT-116 [9] = assay: Induction of apoptosis in human HCT-116 cells assessed as late apoptotic cells at 2.5 uM measured after 24 hrs by Annexin V-FITC/propidium iodide staining based flow cytometry (reference value: 0.02%); type: functional
Homo sapiens [10] = organism: Homo sapiens; assay: Selectivity ratio of IC50 for inhibition of Aurora B (unknown origin) to IC50 for inhibition of Aurora A (unknown origin) expressed in Escherichia coli Rosetta 2(DE3)
[11] = molecular target: T1, Aurora kinase A (Homo sapiens); assay: Inhibition of Aurora A in human HCT-116 cells using TACC3 as substrate measured after 2 hrs by Western blot analysis; type: cell-based; conditions: dose 1.56-50 µM, DDE = dose-dependent effect
A549 [12] = assay: Induction of abnormal mitosis in human A549 cells assessed as formation of misaligned chromosome at 3 to 6 uM measured after 24 hrs by DAPI staining based immunofluorescence assay; type: functional, cell-based; conditions: dose 3-6 µM
[13] = molecular target: T1, Aurora kinase A (Homo sapiens); assay: Inhibition of Aurora A (122 to 403 residues) (unknown origin) expressed in Escherichia coli Rosetta 2(DE3) assessed as reduction in TACC3 phosphorylation at Ser 558 residue at 25 uM using TACC3 (519 to 838 residues) as substrate measured after 30 mins by Western blot analysis
A549 [14] = assay: Induction of abnormal mitosis in human A549 cells assessed as increase in abrogated mitotic cells at 3 to 6 uM measured after 24 hrs by DAPI staining based immunofluorescence assay; type: functional, cell-based; conditions: dose 3-6 µM
Aurora kinase B [15] = molecular target: T3, Aurora kinase B; assay: Inhibition of Aurora B in human HCT-116 cells using histone H3 as substrate measured after 2 hrs by Western blot analysis; type: cell-based
HCT-116 [16] = assay: Induction of apoptosis in human HCT-116 cells assessed as early apoptotic cells at 5 uM measured after 24 hrs by Annexin V-FITC/propidium iodide staining based flow cytometry (reference value: 2.92%); type: functional
HCT-116 [17] = assay: Induction of apoptosis in human HCT-116 cells assessed as late apoptotic cells at 5 uM measured after 24 hrs by Annexin V-FITC/propidium iodide staining based flow cytometry (reference value: 0.02%); type: functional
Homo sapiens [18] = organism: Homo sapiens; assay: Selectivity ratio of IC50 for inhibition of Aurora B (unknown origin) to IC50 for inhibition of Aurora A (unknown origin)
Aurora kinase A [19] = molecular target: T2, Aurora kinase A; assay: Inhibition of Aurora A (unknown origin)

T3 sequence (Q96GD4 whole entry): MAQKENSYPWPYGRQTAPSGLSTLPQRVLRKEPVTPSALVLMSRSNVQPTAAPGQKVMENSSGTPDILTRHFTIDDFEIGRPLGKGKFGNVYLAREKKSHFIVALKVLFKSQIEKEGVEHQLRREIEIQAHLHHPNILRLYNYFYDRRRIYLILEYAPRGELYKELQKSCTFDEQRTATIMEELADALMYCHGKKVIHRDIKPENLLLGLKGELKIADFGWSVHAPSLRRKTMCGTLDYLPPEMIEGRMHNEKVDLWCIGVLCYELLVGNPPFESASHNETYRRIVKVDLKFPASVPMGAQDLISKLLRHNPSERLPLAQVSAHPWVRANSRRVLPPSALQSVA

Row | Structure (SMILES) | GI50 (HCT-116 [1]) | GI50 (MV4-11) | GI50 (HCC1954) | GI50 (K562) | GI50 (MOLM-13) | GI50 (BT-549) | GI50 (MCF7) | GI50 (CAL-51) | IC50 (Aurora kinase B [8]) | inhibition [13] | Ratio IC50 (Homo sapiens [18]) | IC50 (Aurora kinase A [19]) | also measured
1 | CC1(C)CCC2=C(O1)c1ccccc1C(=O)C2=O [LAPACHONE] | 12.9 µM | 70.1 µM | 31.8 µM | 41 µM | 34.5 µM | 11.4 µM | 12.2 µM | 8.3 µM | – | – | – | – | –
2 | CC=CCC1=C(O)C(=O)c2ccccc2C1=O | 41.5 µM | 79.1 µM | > 100 µM | > 100 µM | > 100 µM | 47 µM | > 100 µM | 54.1 µM | – | – | – | – | –
3 | CC1=CC(=O)c2cccc(O)c2C1=O | 0.46 µM | 26.5 µM | 0.34 µM | 1.3 µM | 4.1 µM | 2.7 µM | 1.4 µM | 2.5 µM | – | – | – | – | –
4 | COc1ccc2c(c1)C(=O)C=CC2=O | 8.3 µM | 4.3 µM | 2.2 µM | 2.9 µM | 4.1 µM | 34 µM | 28.9 µM | 2.8 µM | – | – | – | – | –
5 | O=C1C=CC(=O)c2c(O)ccc(O)c21 [NAPHTHAZALIN] | 0.16 µM | 0.19 µM | 0.49 µM | 1.7 µM | 0.28 µM | 0.43 µM | 0.43 µM | 0.56 µM | 0.35 µM | Active | – | – | Activity [2]: Active; Activity (A549 [3]): Active; Activity (A549 [4]): Active; Activity (HCT-116 [5]): 6.85%; Activity (HCT-116 [6]): Active; IC50 (Aurora kinase A [7]): 0.09 µM; Activity (HCT-116 [9]): 3.78%; Ratio IC50 (Homo sapiens [10]): 3.89; inhibition [11]: Dde; Activity (A549 [12]): Active; Activity (A549 [14]): Active; inhibition (Aurora kinase B [15]): Active; Activity (HCT-116 [16]): 6.36%; Activity (HCT-116 [17]): 21.56%
6 | CC1=C(Br)C(=O)c2ccccc2C1=O | 3.4 µM | 3.3 µM | 1.4 µM | 3.4 µM | < 0.01 µM | 4.9 µM | 19.1 µM | 1.5 µM | 0.96 µM | Active | 10.7 | 0.09 µM | –
7 | CC1=CC(=O)c2c(O)cc(C)c(C(=O)C(Cl)Cl)c2C1=O | 4.3 µM | 0.86 µM | 1.6 µM | 3.7 µM | 3.7 µM | 8.5 µM | 25.8 µM | 1.9 µM | – | – | – | – | –
8 | O=C1C=C(Cl)C(=O)c2c(O)cccc21 | 4.1 µM | 0.18 µM | 0.99 µM | 3.2 µM | 1.7 µM | 9.3 µM | 15.6 µM | 12.7 µM | 1.8 µM | Active | 12 | 0.15 µM | –
9 | COC(=O)/C=C(/CC1=C(CCC(=O)CC2(C)OCCO2)C(=O)c2ccccc2C1=O)OC | 21.5 µM | 43.1 µM | 19.1 µM | 9.7 µM | 16.8 µM | 24 µM | 28.3 µM | 16.3 µM | – | – | – | – | –
10 | O=C1c2ccccc2C(=O)c2c(O)c(CCl)cc(O)c21 | 0.22 µM | 6.3 µM | 0.61 µM | 2.8 µM | 3.7 µM | 0.4 µM | 0.59 µM | 0.15 µM | 0.41 µM | – | 3.42 | 0.12 µM | Activity [2]: Active; Activity (A549 [3]): Active; Activity (A549 [4]): Active; Activity (HCT-116 [5]): 11.27%; Activity (HCT-116 [6]): Active; Activity (HCT-116 [9]): 8.31%; Activity (A549 [12]): Active; Activity (A549 [14]): Active; Activity (HCT-116 [16]): 17.6%; Activity (HCT-116 [17]): 53.93%
11 | O=C1C=CC(=O)c2c(O)cccc21 [JUGLONE] | 4.2 µM | 0.06 µM | 6.44 µM | > 100 µM | 21.9 µM | > 100 µM | 32.6 µM | > 100 µM | 0.62 µM | Active | 12.4 | 0.05 µM | –
